# From PubChem BioAssay (NCI)
#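 Dose response: 5 concentrations. Exposure: 48 h. Format: 96-well plates. Endpoint: linear interpolation; highest concentration if not reached. The concentration for 50% growth inhibition is given as GI50. At the TGI there is no net growth.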
# How the values were obtained:
# Assay in all cases: NCI-60 cell line screen, 48 h
# 786-0 renal = tested on: 786-0 renal
# ACHN renal = tested on: ACHN renal
# HCT-116 colon = tested on: HCT-116 colon
# HOP-92 NSCLC = tested on: HOP-92 NSCLC
# LOX IMVI melanoma = tested on: LOX IMVI melanoma
# OVCAR-3 ovarian = tested on: OVCAR-3 ovarian
# TK-10 renal = tested on: TK-10 renal
# DU-145 prostate = tested on: DU-145 prostate
# NCI/ADR-RES ovarian = tested on: NCI/ADR-RES ovarian
# RPMI-8226 leukemia = tested on: RPMI-8226 leukemia
smiles,measurement,setting,value
CCC(=O)OC1CCn2c1nc1c2C(=O)C(C)=C(NC(C)=O)C1=N (stereo not drawn),TGI,786-0 renal,6.06 µM
same,TGI,ACHN renal,3.95 µM
same,TGI,HCT-116 colon,2.39 µM
same,TGI,HOP-92 NSCLC,5.15 µM
same,TGI,LOX IMVI melanoma,3 µM
same,TGI,OVCAR-3 ovarian,3.31 µM
same,TGI,TK-10 renal,12.8 µM
Cc1nc(-c2cc3ccccc3oc2=O)cs1,TGI,786-0 renal,> 100 µM
same,TGI,ACHN renal,> 100 µM
same,TGI,DU-145 prostate,> 100 µM
same,TGI,HCT-116 colon,> 100 µM
same,TGI,HOP-92 NSCLC,53.9 µM
same,TGI,LOX IMVI melanoma,> 100 µM
same,TGI,NCI/ADR-RES ovarian,> 100 µM
same,TGI,RPMI-8226 leukemia,> 100 µM
same,TGI,TK-10 renal,> 100 µM
CC1(C)O[C@@H](C[C@]2(C#N)C[C@H](CCl)OC(C)(C)O2)C[C@@H](C#N)O1,TGI,786-0 renal,> 100 µM
same,TGI,ACHN renal,> 100 µM
same,TGI,HCT-116 colon,> 100 µM
same,TGI,HOP-92 NSCLC,> 100 µM
same,TGI,LOX IMVI melanoma,> 100 µM
same,TGI,OVCAR-3 ovarian,> 100 µM
same,TGI,RPMI-8226 leukemia,> 100 µM
same,TGI,TK-10 renal,> 100 µM
COc1cc(N(CCC#N)CCC#N)ccc1/C=N\NC(=O)c1ccc(C)cc1,TGI,786-0 renal,> 100 µM
same,TGI,ACHN renal,> 100 µM
same,TGI,DU-145 prostate,> 100 µM
same,TGI,HCT-116 colon,> 100 µM
same,TGI,HOP-92 NSCLC,> 100 µM
same,TGI,LOX IMVI melanoma,> 100 µM
same,TGI,NCI/ADR-RES ovarian,> 100 µM
same,TGI,OVCAR-3 ovarian,> 100 µM
same,TGI,TK-10 renal,> 100 µM
CC(=O)OCC1OC(n2c(C)c(C)c(C)c(C#N)c2=S)C(OC(C)=O)C(OC(C)=O)C1OC(C)=O (stereo not drawn),TGI,786-0 renal,93.1 µM
same,TGI,ACHN renal,> 100 µM
same,TGI,DU-145 prostate,> 100 µM
same,TGI,HCT-116 colon,67.7 µM
same,TGI,HOP-92 NSCLC,> 100 µM
same,TGI,LOX IMVI melanoma,> 100 µM
same,TGI,NCI/ADR-RES ovarian,> 100 µM
same,TGI,OVCAR-3 ovarian,> 100 µM
same,TGI,TK-10 renal,> 100 µM
Nc1c(S(=O)(=O)O)cc(S(=O)(=O)O)c2ccc(N=Nc3ccc(/C=C/c4ccc(N=Nc5ccc6c(S(=O)(=O)O)cc(S(=O)(=O)O)c(N)c6c5O)cc4S(=O)(=O)O)c(S(=O)(=O)O)c3)c(O)c12,TGI,HCT-116 colon,> 100 µM
same,TGI,HOP-92 NSCLC,> 100 µM
same,TGI,LOX IMVI melanoma,> 100 µM
same,TGI,NCI/ADR-RES ovarian,> 100 µM
same,TGI,OVCAR-3 ovarian,> 100 µM
same,TGI,RPMI-8226 leukemia,> 100 µM
CSc1cnc2ccccc2c1Sc1c[nH]c2ccccc2c1=O,TGI,786-0 renal,34.8 µM
same,TGI,ACHN renal,52.5 µM
same,TGI,HCT-116 colon,28.7 µM
same,TGI,HOP-92 NSCLC,29.7 µM
same,TGI,LOX IMVI melanoma,67.2 µM
same,TGI,OVCAR-3 ovarian,22 µM
same,TGI,RPMI-8226 leukemia,64.4 µM
same,TGI,TK-10 renal,91.4 µM
O=[N+]([O-])/C(C(Cl)=C(Cl)Cl)=C(/Nc1cccc2cccnc12)n1nnc2ccccc21,TGI,786-0 renal,43.8 µM
same,TGI,ACHN renal,49.8 µM
same,TGI,HCT-116 colon,> 100 µM
same,TGI,NCI/ADR-RES ovarian,53.7 µM
same,TGI,OVCAR-3 ovarian,23.7 µM
same,TGI,RPMI-8226 leukemia,83.6 µM
O=c1[nH]c(=O)n(C2OC(CO)C(O)C2O)cc1OCCCc1ccccc1 (stereo not drawn),TGI,786-0 renal,> 100 µM
same,TGI,ACHN renal,> 100 µM
same,TGI,DU-145 prostate,> 100 µM
same,TGI,HCT-116 colon,> 100 µM
same,TGI,LOX IMVI melanoma,> 100 µM
same,TGI,NCI/ADR-RES ovarian,> 100 µM
same,TGI,OVCAR-3 ovarian,> 100 µM
same,TGI,TK-10 renal,> 100 µM
NC(=O)CN1C=CCC(C(N)=O)=C1,TGI,786-0 renal,> 100 µM
same,TGI,ACHN renal,> 100 µM
same,TGI,DU-145 prostate,> 100 µM
same,TGI,HCT-116 colon,> 100 µM
same,TGI,HOP-92 NSCLC,> 100 µM
same,TGI,LOX IMVI melanoma,> 100 µM
same,TGI,NCI/ADR-RES ovarian,> 100 µM
same,TGI,OVCAR-3 ovarian,> 100 µM
same,TGI,RPMI-8226 leukemia,> 100 µM
CCOC(=O)C1=C(O)c2ccc(C)cc2C(=O)C1=O,TGI,786-0 renal,> 100 µM
same,TGI,ACHN renal,> 100 µM
same,TGI,HCT-116 colon,> 100 µM
same,TGI,HOP-92 NSCLC,> 100 µM
same,TGI,LOX IMVI melanoma,> 100 µM
same,TGI,OVCAR-3 ovarian,> 100 µM
same,TGI,RPMI-8226 leukemia,> 100 µM
same,TGI,TK-10 renal,> 100 µM
Clc1ccc(C2=CCN3CC=C(c4ccc(Cl)cc4)C23)cc1,TGI,786-0 renal,24.1 µM
same,TGI,ACHN renal,27 µM
same,TGI,DU-145 prostate,29.2 µM
same,TGI,HCT-116 colon,19.2 µM
same,TGI,LOX IMVI melanoma,20.6 µM
same,TGI,NCI/ADR-RES ovarian,26.9 µM
same,TGI,OVCAR-3 ovarian,25.1 µM
same,TGI,RPMI-8226 leukemia,18.5 µM
same,TGI,TK-10 renal,27.5 µM
CC(C)c1cc(C(C)C)c(S(=O)(=O)N=[N+]=[N-])c(C(C)C)c1,TGI,786-0 renal,> 100 µM
same,TGI,ACHN renal,> 100 µM
same,TGI,HCT-116 colon,> 100 µM
same,TGI,HOP-92 NSCLC,> 100 µM
same,TGI,LOX IMVI melanoma,> 100 µM
same,TGI,OVCAR-3 ovarian,> 100 µM
same,TGI,RPMI-8226 leukemia,97.6 µM
same,TGI,TK-10 renal,> 100 µM
Oc1ccc(Oc2cc3c(cc2Oc2ccc(O)cc2)-c2nc-3nc3[nH]c(nc4nc(nc5[nH]c(n2)c2cc(Oc6ccc(O)cc6)c(Oc6ccc(O)cc6)cc52)-c2cc(Oc5ccc(O)cc5)c(Oc5ccc(O)cc5)cc2-4)c2cc(Oc4ccc(O)cc4)c(Oc4ccc(O)cc4)cc32)cc1,TGI,786-0 renal,> 100 µM
same,TGI,ACHN renal,> 100 µM
same,TGI,HCT-116 colon,> 100 µM
same,TGI,HOP-92 NSCLC,> 100 µM
same,TGI,LOX IMVI melanoma,> 100 µM
same,TGI,NCI/ADR-RES ovarian,> 100 µM
same,TGI,OVCAR-3 ovarian,> 100 µM
same,TGI,TK-10 renal,> 100 µM
COc1ccccc1C1C(C#N)=C(N)Oc2n[nH]c(C)c21 (stereo not drawn),GI50,ACHN renal,> 100 µM
same,TGI,ACHN renal,> 100 µM
same,GI50,DU-145 prostate,> 100 µM
same,TGI,DU-145 prostate,> 100 µM
same,GI50,HCT-116 colon,90.7 µM
same,TGI,HCT-116 colon,> 100 µM
same,GI50,HOP-92 NSCLC,41.2 µM
same,TGI,HOP-92 NSCLC,> 100 µM
same,GI50,LOX IMVI melanoma,> 100 µM
same,TGI,LOX IMVI melanoma,> 100 µM
same,GI50,NCI/ADR-RES ovarian,> 100 µM
same,TGI,NCI/ADR-RES ovarian,> 100 µM
same,GI50,OVCAR-3 ovarian,> 100 µM
same,TGI,OVCAR-3 ovarian,> 100 µM
same,GI50,RPMI-8226 leukemia,10.5 µM
same,TGI,RPMI-8226 leukemia,29.6 µM
same,GI50,TK-10 renal,> 100 µM
same,TGI,TK-10 renal,> 100 µM
CCN(CC)CC1CCCCN1CC(=O)N1CC(C)C(=O)Nc2ccccc21 (stereo not drawn),TGI,786-0 renal,> 100 µM
same,TGI,ACHN renal,> 100 µM
same,TGI,HCT-116 colon,> 100 µM
same,TGI,HOP-92 NSCLC,> 100 µM
same,TGI,LOX IMVI melanoma,> 100 µM
same,TGI,OVCAR-3 ovarian,> 100 µM
same,TGI,RPMI-8226 leukemia,> 100 µM
CC(=O)C(C)(C)CCC(C)(C)C(C)=O,TGI,786-0 renal,> 100 µM
same,TGI,ACHN renal,> 100 µM
same,TGI,DU-145 prostate,> 100 µM
same,TGI,HCT-116 colon,> 100 µM
same,TGI,LOX IMVI melanoma,> 100 µM
same,TGI,NCI/ADR-RES ovarian,> 100 µM
same,TGI,TK-10 renal,> 100 µM
O=C1C2C=CC(n3[nH]c(=O)n(Cc4ccccc4)c3=O)CC2C(=O)N1c1ccc(Br)cc1 (stereo not drawn),TGI,786-0 renal,> 100 µM
same,TGI,ACHN renal,> 100 µM
same,TGI,HCT-116 colon,> 100 µM
same,TGI,HOP-92 NSCLC,> 100 µM
same,TGI,LOX IMVI melanoma,> 100 µM
same,TGI,OVCAR-3 ovarian,> 100 µM
same,TGI,RPMI-8226 leukemia,> 100 µM
same,TGI,TK-10 renal,> 100 µM
C=C1C(C)C2C(Cc3ccccc3)NC(=O)C23OC(=O)/C=C\CC(=O)CCC(C)C/C=C/C3C1O (stereo not drawn),TGI,HCT-116 colon,7.35 µM
same,GI50,HOP-92 NSCLC,0.345 µM
same,TGI,HOP-92 NSCLC,2.1 µM
same,TGI,LOX IMVI melanoma,3.64 µM
same,TGI,NCI/ADR-RES ovarian,33.4 µM
same,GI50,OVCAR-3 ovarian,0.384 µM
same,TGI,OVCAR-3 ovarian,7.9 µM
same,GI50,RPMI-8226 leukemia,0.932 µM
same,TGI,RPMI-8226 leukemia,5.21 µM
same,TGI,TK-10 renal,0.722 µM
COc1cc2c(c(OC)c1OC)-c1ccc(SC)c(=O)cc1[C@@H](NCc1ccc([N+](=O)[O-])cc1)CC2,TGI,786-0 renal,> 100 µM
same,TGI,ACHN renal,> 100 µM
same,TGI,HOP-92 NSCLC,> 100 µM
same,TGI,LOX IMVI melanoma,> 100 µM
same,TGI,OVCAR-3 ovarian,0.00965 µM
same,TGI,RPMI-8226 leukemia,> 100 µM
Cc1c2ccncc2c(C)c2c1[nH]c1ccc(OCCN(C)C)cc12,TGI,HCT-116 colon,0.256 µM
same,TGI,HOP-92 NSCLC,1.62 µM
same,TGI,LOX IMVI melanoma,0.396 µM
same,TGI,NCI/ADR-RES ovarian,0.348 µM
same,TGI,OVCAR-3 ovarian,1.07 µM
same,TGI,RPMI-8226 leukemia,0.135 µM
CN(C)CC1CCC(CN(C)C)C(=O)C1=O (stereo not drawn),TGI,786-0 renal,29.7 µM
same,TGI,ACHN renal,11.9 µM
same,TGI,DU-145 prostate,30.1 µM
same,TGI,HCT-116 colon,7.55 µM
same,TGI,HOP-92 NSCLC,3.81 µM
same,TGI,LOX IMVI melanoma,22.2 µM
same,TGI,OVCAR-3 ovarian,5.32 µM
same,TGI,RPMI-8226 leukemia,18.1 µM
same,TGI,TK-10 renal,9.96 µM
N/C(=N\N=C\c1ncccc1O)NO,TGI,HCT-116 colon,> 100 µM
same,TGI,HOP-92 NSCLC,> 100 µM
same,TGI,LOX IMVI melanoma,> 100 µM
same,TGI,NCI/ADR-RES ovarian,> 85.5 µM
same,TGI,OVCAR-3 ovarian,> 100 µM
same,TGI,RPMI-8226 leukemia,> 100 µM
Oc1ccc(-c2nc3ccccc3s2)cc1,TGI,786-0 renal,> 100 µM
same,TGI,ACHN renal,> 100 µM
same,TGI,DU-145 prostate,> 100 µM
same,TGI,HCT-116 colon,74.9 µM
same,TGI,HOP-92 NSCLC,> 100 µM
same,TGI,LOX IMVI melanoma,45 µM
same,TGI,NCI/ADR-RES ovarian,> 100 µM
same,TGI,OVCAR-3 ovarian,> 100 µM
same,TGI,RPMI-8226 leukemia,> 100 µM
